Laboratory results reported in patent publication US6525001B1, “Substituted pyrimidine and pyridine herbicides” (Mid-American Commercialization Corporation, priority 1997, dated 2003).

Legend:
Type in all cases: in vivo
Design in all cases: key: 0 is no effect; 10 is complete control
[1] = system: bedstraw (Galium aparine); test: Test B pre-/postemergence
Text: (§1) Seeds of bedstraw (Galium aparine), blackgrass (Alopecurus myosuroides), broadleaf signalgrass (Brachiaria decumbens), cocklebur (Xanthium strumarium), corn (Zea mays), crabgrass (Digitaria sanguinalis), giant foxtail (Setaria faberii), lambsquarters (Chenopodium album), momingglory (Ipomoea hederacea), pigweed (Amaranthus retroflexus), rape (Brassica napus), soybean (Glycine max), sugar beet (Beta vulgaris), velvetleaf (Abutilon theophrasti), wheat (Triticum aestivum), wild oat (Avena fatua) and purple nutsedge (Cyperus rotundus) tubers were planted and treated preemergence with test chemicals formulated in a non-phytotoxic solvent mixture which included a surfactant.
(§2) At the same time, these crop and weed species were also treated with postemergence applications of test chemicals formulated in the same manner. Plants ranged in height from 2 to 18 cm (1- to 4-leaf stage) for postemergence treatments. Plant species in the flood test consisted of rice (Oryza sativa), smallflower flatsedge (Cyperus difformis), duck salad (Heteranthera limosa) and bamyardgrass (Echinochloa crus-galli) grown to the 2-leaf stage for testing. Treated plants and controls were maintained in a greenhouse for twelve to sixteen days, after which all species were compared to controls and visually evaluated. Plant response ratings, summarized in Table B, are based on a scale of 0 to 10 where 0 is no effect and 10 is complete control. A dash (−) response means no test result.

[2] = system: blackgrass (Alopecurus myosuroides); test: Test B pre-/postemergence
Text: as §1, §2

[3] = system: broadleaf signalgrass (Brachiaria decumbens); test: Test B pre-/postemergence
Text: as §1, §2

[4] = system: cocklebur (Xanthium strumarium); test: Test B pre-/postemergence
Text: as §1, §2

[5] = system: corn (Zea mays); test: Test B pre-/postemergence
Text: as §1, §2

[6] = system: crabgrass (Digitaria sanguinalis); test: Test B pre-/postemergence
Text: as §1, §2

[7] = system: giant foxtail (Setaria faberii); test: Test B pre-/postemergence
Text: as §1, §2

[8] = system: momingglory (Ipomoea hederacea); test: Test B pre-/postemergence
Text: as §1, §2

[9] = system: pigweed (Amaranthus retroflexus); test: Test B pre-/postemergence
Text: as §1, §2

[10] = system: rape (Brassica napus); test: Test B pre-/postemergence
Text: as §1, §2

[11] = system: soybean (Glycine max); test: Test B pre-/postemergence
Text: as §1, §2

[12] = system: sugar beet (Beta vulgaris); test: Test B pre-/postemergence
Text: as §1, §2

[13] = system: velvetleaf (Abutilon theophrasti); test: Test B pre-/postemergence
Text: as §1, §2

[14] = system: wheat (Triticum aestivum); test: Test B pre-/postemergence
Text: as §1, §2

[15] = system: wild oat (Avena fatua); test: Test B pre-/postemergence
Text: as §1, §2

[16] = system: bamyardgrass (Echinochloa crus-galli); test: Test B flood test
Procedure: as §2

[17] = system: duck salad (Heteranthera limosa); test: Test B flood test
Procedure: as §2

[18] = system: rice (Oryza sativa); test: Test B flood test
Procedure: as §2

[19] = system: smallflower flatsedge (Cyperus difformis); test: Test B flood test
Procedure: as §2

[20] = Preemergence, Rate 62 g/ha, scale of 0 to 10
[21] = Rate 62 g/ha, Postemergence (flood test)
[22] = Rate 125 g/ha, Postemergence section (flood test species)
[23] = Rate 250 g/ha, Postemergence (flood test species)
[24] = Rate 250 g/ha, Postemergence (so in the source)
[25] = Rate 125 g/ha, Postemergence, flood test

CCc1cnc(-n2cnc(C(F)(F)F)c2)nc1C(=O)c1cccc(OC(F)(F)F)c1 [Compound 71]
7: Rape plant response rating ([10]; Rate 125 g/ha, Postemergence) | Plant response rating, Rape ([10]; Rate 125 g/ha, Preemergence)
8: Redroot pigweed plant response rating ([9]; Rate 62 g/ha, Postemergence) | Redroot pigweed plant response rating ([9]; Rate 125 g/ha, Postemergence) | Plant response rating, Redroot pigweed ([9]; Rate 125 g/ha, Preemergence) | Sugarbeets plant response rating ([12]; Rate 62 g/ha, Postemergence) | Sugarbeets plant response rating ([12]; Rate 125 g/ha, Postemergence)
1: Plant response rating, Bedstraw ([1]; Rate 125 g/ha, Preemergence) | Plant response rating, Blackgrass [2, 20] | Plant response rating, Corn [5, 20] | Plant response rating, Corn ([5]; Rate 125 g/ha, Preemergence) | Plant response rating, Giant foxtail [7, 20] | Morningglory plant response rating ([8]; Rate 62 g/ha, Postemergence) | Plant response rating, Wheat [14, 20]
0: B. signalgrass plant response rating ([3]; Rate 62 g/ha, Preemergence) | Plant response rating, Cocklebur ([4]; Rate 125 g/ha, Preemergence) | Plant response rating, Soybean [11, 20] | Plant response rating, Soybean ([11]; Rate 125 g/ha, Preemergence) | Plant response rating, Wild oats [15, 20] | Ducksalad plant response rating [17, 21] | Ducksalad plant response rating [17, 22] | S. Flatsedge plant response rating [19, 21]
2: Blackgrass plant response rating ([2]; Rate 62 g/ha, Postemergence) | Plant response rating, Blackgrass ([2]; Rate 125 g/ha, Preemergence) | B. signalgrass plant response rating ([3]; Rate 62 g/ha, Postemergence) | B. signalgrass plant response rating ([3]; Rate 125 g/ha, Postemergence) | Plant response rating, B. signalgrass ([3]; Rate 125 g/ha, Preemergence) | Corn plant response rating ([5]; Rate 62 g/ha, Postemergence) | Plant response rating, Crabgrass [6, 20] | Crabgrass plant response rating ([6]; Rate 62 g/ha, Postemergence) | Plant response rating, Crabgrass ([6]; Rate 125 g/ha, Preemergence) | Giant foxtail plant response rating ([7]; Rate 62 g/ha, Postemergence) | Giant foxtail plant response rating ([7]; Rate 125 g/ha, Postemergence) | Plant response rating, Giant foxtail ([7]; Rate 125 g/ha, Preemergence) | Plant response rating, Morningglory [8, 20] | Plant response rating, Rape [10, 20] | Plant response rating, Sugarbeets [12, 20] | Wild oats plant response rating ([15]; Rate 62 g/ha, Postemergence) | Wild oats plant response rating ([15]; Rate 125 g/ha, Postemergence) | Barnyardgrass plant response rating [16, 21] | Barnyardgrass plant response rating [16, 22] | Plant response rating, Ducksalad [17, 23] | Rice plant response rating [18, 21] | Rice plant response rating [18, 22] | Plant response rating, Rice [18, 23] | S. Flatsedge plant response rating [19, 22]
5: Rape plant response rating ([10]; Rate 62 g/ha, Postemergence)
6: Morningglory plant response rating ([8]; Rate 125 g/ha, Postemergence) | Plant response rating, Redroot pigweed [9, 20] | Velvetleaf plant response rating ([13]; Rate 125 g/ha, Postemergence) | Plant response rating, Velvetleaf ([13]; Rate 125 g/ha, Preemergence)
3: Blackgrass plant response rating ([2]; Rate 125 g/ha, Postemergence) | Corn plant response rating ([5]; Rate 125 g/ha, Postemergence) | Crabgrass plant response rating ([6]; Rate 125 g/ha, Postemergence) | Soybean plant response rating ([11]; Rate 62 g/ha, Postemergence) | Plant response rating, Sugarbeets ([12]; Rate 125 g/ha, Preemergence) | Velvetleaf plant response rating ([13]; Rate 62 g/ha, Postemergence) | Plant response rating, Wheat ([14]; Rate 125 g/ha, Preemergence) | Plant response rating, Wild oats ([15]; Rate 125 g/ha, Preemergence) | Plant response rating, Barnyardgrass [16, 23]
4: Cocklebur plant response rating ([4]; Rate 62 g/ha, Postemergence) | Cocklebur plant response rating ([4]; Rate 125 g/ha, Postemergence) | Plant response rating, Morningglory ([8]; Rate 125 g/ha, Preemergence) | Soybean plant response rating ([11]; Rate 125 g/ha, Postemergence) | Wheat plant response rating ([14]; Rate 62 g/ha, Postemergence) | Wheat plant response rating ([14]; Rate 125 g/ha, Postemergence) | Plant response rating, S. Flatsedge [19, 23]

CCc1cnc(-n2ccc(C(F)(F)F)n2)nc1Cc1cccc(OC(F)(F)F)c1 [Compound 47]
1: Cocklebur plant response rating ([4]; Rate 62 g/ha, Preemergence) | Corn plant response rating ([5]; Rate 62 g/ha, Preemergence) | Morningglory plant response rating ([8]; Rate 62 g/ha, Preemergence)
4: Plant response rating, B. signalgrass ([3]; Rate 62 g/ha, Postemergence) | Plant response rating, Corn ([5]; Rate 250 g/ha, Postemergence) | Plant response rating, Giant foxtail ([7]; Rate 62 g/ha, Postemergence) | Giant foxtail plant response rating ([7]; Rate 125 g/ha, Postemergence)
2: Cocklebur plant response rating ([4]; Rate 125 g/ha, Preemergence) | Plant response rating, Cocklebur [4, 24] | Corn plant response rating ([5]; Rate 125 g/ha, Preemergence) | Plant response rating, Soybean [11, 24] | Wheat plant response rating ([14]; Rate 62 g/ha, Preemergence) | Plant response rating, Barnyardgrass [16, 21]
7: Bedstraw plant response rating ([1]; Rate 62 g/ha, Preemergence) | Plant response rating, Cocklebur ([4]; Rate 62 g/ha, Postemergence) | Plant response rating, Crabgrass ([6]; Rate 62 g/ha, Postemergence) | Plant response rating, Giant foxtail ([7]; Rate 250 g/ha, Postemergence) | Rape plant response rating ([10]; Rate 62 g/ha, Preemergence) | Plant response rating, Soybean ([11]; Rate 250 g/ha, Postemergence) | Sugarbeets plant response rating ([12]; Rate 62 g/ha, Preemergence) | Plant response rating, Sugarbeets ([12]; Rate 125 g/ha, Preemergence) | Plant response rating, Velvetleaf ([13]; Rate 62 g/ha, Postemergence) | Velvetleaf plant response rating ([13]; Rate 125 g/ha, Postemergence) | Plant response rating, Ducksalad [17, 23] | Plant response rating, S. Flatsedge [19, 21] | S. Flatsedge plant response rating [19, 22]
9: Plant response rating, Bedstraw ([1]; Rate 62 g/ha, Postemergence) | Plant response rating, B. signalgrass ([3]; Rate 250 g/ha, Postemergence as printed in head r139 (second section for compounds 26-50)) | Plant response rating, Crabgrass ([6]; Rate 125 g/ha, Postemergence) | Giant foxtail plant response rating ([7]; Rate 62 g/ha, Preemergence) | Plant response rating, Redroot pigweed ([9]; Rate 62 g/ha, Postemergence) | Redroot pigweed plant response rating ([9]; Rate 125 g/ha, Postemergence) | Redroot pigweed plant response rating ([9]; Rate 125 g/ha, Preemergence) | Plant response rating, Redroot pigweed ([9]; Rate 250 g/ha, Postemergence) | Rape plant response rating ([10]; Rate 125 g/ha, Preemergence) | Plant response rating, Sugarbeets ([12]; Rate 62 g/ha, Postemergence) | Sugarbeets plant response rating ([12]; Rate 125 g/ha, Postemergence) | Plant response rating, Sugarbeets ([12]; Rate 250 g/ha, Postemergence) | Plant response rating, Sugarbeets [12, 24] | Wild oats plant response rating ([15]; Rate 62 g/ha, Preemergence) | Plant response rating, Wild oats ([15]; Rate 125 g/ha, Preemergence) | Plant response rating, Wild oats ([15]; Rate 250 g/ha, Postemergence) | Plant response rating, S. Flatsedge [19, 23]
8: Bedstraw plant response rating ([1]; Rate 125 g/ha, Preemergence) | Plant response rating, Bedstraw [1, 24] | Blackgrass plant response rating ([2]; Rate 125 g/ha, Preemergence) | Plant response rating, B. signalgrass ([3]; Rate 250 g/ha, Postemergence) | Plant response rating, Cocklebur ([4]; Rate 125 g/ha, Postemergence) | Plant response rating, Cocklebur ([4]; Rate 250 g/ha, Postemergence) | Crabgrass plant response rating ([6]; Rate 62 g/ha, Preemergence) | Plant response rating, Morningglory ([8]; Rate 250 g/ha, Postemergence) | Redroot pigweed plant response rating ([9]; Rate 62 g/ha, Preemergence) | Plant response rating, Soybean ([11]; Rate 62 g/ha, Postemergence) | Soybean plant response rating ([11]; Rate 125 g/ha, Postemergence) | Velvetleaf plant response rating ([13]; Rate 62 g/ha, Preemergence) | Plant response rating, Velvetleaf ([13]; Rate 250 g/ha, Postemergence) | Wild oats plant response rating ([15]; Rate 125 g/ha, Postemergence)
10: Plant response rating, Blackgrass [2, 24] | Crabgrass plant response rating ([6]; Rate 125 g/ha, Preemergence) | Plant response rating, Crabgrass ([6]; Rate 250 g/ha, Postemergence) | Plant response rating, Crabgrass [6, 24] | Giant foxtail plant response rating ([7]; Rate 125 g/ha, Preemergence) | Plant response rating, Giant foxtail [7, 24] | Plant response rating, Redroot pigweed [9, 24] | Plant response rating, Rape ([10]; Rate 62 g/ha, Postemergence) | Rape plant response rating ([10]; Rate 125 g/ha, Postemergence) | Plant response rating, Rape ([10]; Rate 250 g/ha, Postemergence) | Plant response rating, Rape [10, 24] | Plant response rating, Velvetleaf ([13]; Rate 125 g/ha, Preemergence) | Plant response rating, Velvetleaf [13, 24] | Plant response rating, Wild oats [15, 24]
0: Soybean plant response rating ([11]; Rate 62 g/ha, Preemergence) | Plant response rating, Soybean ([11]; Rate 125 g/ha, Preemergence)
3: Blackgrass plant response rating ([2]; Rate 62 g/ha, Preemergence) | Plant response rating, Corn ([5]; Rate 62 g/ha, Postemergence) | Plant response rating, Corn ([5]; Rate 125 g/ha, Postemergence) | Plant response rating, Corn [5, 24] | Plant response rating, Wheat ([14]; Rate 125 g/ha, Preemergence) | Plant response rating, Barnyardgrass [16, 25] | Plant response rating, Ducksalad [17, 21] | Plant response rating, Ducksalad [17, 25] | Plant response rating, Rice [18, 21]
5: Plant response rating, Blackgrass ([2]; Rate 62 g/ha, Postemergence) | Plant response rating, Blackgrass ([2]; Rate 125 g/ha, Postemergence) | B. signalgrass plant response rating ([3]; Rate 62 g/ha, Preemergence) | Plant response rating, B. signalgrass ([3]; Rate 125 g/ha, Postemergence) | Wheat plant response rating ([14]; Rate 62 g/ha, Postemergence) | Wheat plant response rating ([14]; Rate 125 g/ha, Postemergence) | Plant response rating, Wheat [14, 24] | Rice plant response rating [18, 22]
6: Plant response rating, Blackgrass ([2]; Rate 250 g/ha, Postemergence) | B. signalgrass plant response rating ([3]; Rate 125 g/ha, Preemergence) | Plant response rating, Morningglory ([8]; Rate 62 g/ha, Postemergence) | Morningglory plant response rating ([8]; Rate 125 g/ha, Postemergence) | Morningglory plant response rating ([8]; Rate 125 g/ha, Preemergence) | Plant response rating, Morningglory [8, 24] | Plant response rating, Wheat ([14]; Rate 250 g/ha, Postemergence) | Wild oats plant response rating ([15]; Rate 62 g/ha, Postemergence) | Plant response rating, Barnyardgrass [16, 23] | Plant response rating, Rice [18, 23]
